This passage reports relative viability results from the supplement of paper PMC10307832.

Test in all cases: relative viability (nuclei count vs DMSO), 5 days (fraction); higher = more cells survive
Compound in the assay “Etoposide + Vorinostat”: COc1cc([C@@H]2c3cc4c(cc3[C@@H](O[C@@H]3O[C@@H]5CO[C@@H](C)O[C@H]5[C@H](O)[C@H]3O)[C@H]3COC(=O)[C@H]23)OCO4)cc(OC)c1O [Etoposide] + O=C(CCCCCCC(=O)Nc1ccccc1)NO [Vorinostat] (partner 1 µM)
In a few lines: (§1)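 Nuclei were stained with Hoechst during a one-step fixation (final 0.05% Triton X-100, 1% formaldehyde, 1 ug/ml Hoechst) carried out 5 days after dosing, then counted on 4× images. The cells, lung cancer lines in 1536-well plates, had been dosed by pin tool the day after seeding with one drug alone or a fixed anchor-drug dose plus five library-drug doses (not always all listed) in √10 steps. Relative viability is the nuclei count in treated wells divided by that in vehicle wells, and each value is the median of duplicate plates.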

Compound in the assay “Bleomycin + Phenformin”: CC1=C(N=C(N=C1N)[C@H](CC(=O)N)NC[C@@H](C(=O)N)N)C(=O)N[C@@H]([C@H](C2=CN=CN2)OC3C(C(C(C(O3)CO)O)O)OC4C(C(C(C(O4)CO)O)OC(=O)N)O)C(=O)N[C@H](C)[C@H]([C@H](C)C(=O)N[C@@H]([C@@H](C)O)C(=O)NCCC5=NC(=CS5)C6=NC(=CS6)C(=O)NCCC[S+](C)C)O [Bleomycin] + N=C(N)NC(=N)NCCc1ccccc1 [Phenformin] (partner 250 µM)
The settings on record: main component drawn. An outline of the steps:
as §1

Compound in the assay “Etoposide + Pictilisib”: COc1cc([C@@H]2c3cc4c(cc3[C@@H](O[C@@H]3O[C@@H]5CO[C@@H](C)O[C@H]5[C@H](O)[C@H]3O)[C@H]3COC(=O)[C@H]23)OCO4)cc(OC)c1O [Etoposide] + CS(=O)(=O)N1CCN(Cc2cc3nc(-c4cccc5[nH]ncc45)nc(N4CCOCC4)c3s2)CC1 [Pictilisib] (partner 1 µM)
In a few lines:
as §1

Compound in the assay “Etoposide + Trametinib”: COc1cc([C@@H]2c3cc4c(cc3[C@@H](O[C@@H]3O[C@@H]5CO[C@@H](C)O[C@H]5[C@H](O)[C@H]3O)[C@H]3COC(=O)[C@H]23)OCO4)cc(OC)c1O [Etoposide] + CC(=O)Nc1cccc(-n2c(=O)n(C3CC3)c(=O)c3c(Nc4ccc(I)cc4F)n(C)c(=O)c(C)c32)c1 [Trametinib] (partner 0.02 µM)
An outline of the steps:
as §1

In the case of LK-2, the relative viability is 0.317 in the assay with Etoposide + Vorinostat (first compound 0.01 µM); 0.374 in the assay with Etoposide + Vorinostat (first compound 0.03162 µM); 0.165 with Etoposide + Vorinostat (first compound 0.1 µM); 0.158 with Etoposide + Vorinostat (first compound 0.3162 µM); 0.149 with Etoposide + Vorinostat (first compound 1 µM); 0.289 with Bleomycin + Phenformin (first compound 0.01 µM). The relative viability with Bleomycin + Phenformin (first compound 0.03162 µM) worked out at 0.281; with Bleomycin + Phenformin (first compound 0.1 µM) it was 0.304; with Bleomycin + Phenformin (first compound 0.3162 µM), 0.23; in the assay with Bleomycin + Phenformin (first compound 1 µM), 0.16; with Etoposide + Pictilisib (first compound 0.01 µM), 0.573; in the assay with Etoposide + Pictilisib (first compound 0.03162 µM), 0.572. In addition, the relative viability in the assay with Etoposide + Pictilisib (first compound 0.1 µM) stood at 0.407; with Etoposide + Pictilisib (first compound 0.3162 µM) it was 0.476; in the assay with Etoposide + Pictilisib (first compound 1 µM), 0.26; with Etoposide + Trametinib (first compound 0.01 µM), 0.688; with Etoposide + Trametinib (first compound 0.03162 µM), 0.861; with Etoposide + Trametinib (first compound 0.1 µM) it was 0.498. For the same cell line, the relative viability in the assay with Etoposide + Trametinib (first compound 0.3162 µM) stood at 0.438; with Etoposide + Trametinib (first compound 1 µM), 0.2.

With NCI-H441, the relative viability in the assay with Etoposide + Vorinostat (first compound 0.01 µM) was found to be 0.645; with Etoposide + Vorinostat (first compound 0.03162 µM) it was 0.625; with Etoposide + Vorinostat (first compound 0.1 µM), 0.345; with Etoposide + Vorinostat (first compound 0.3162 µM), 0.224; with Etoposide + Vorinostat (first compound 1 µM), 0.182; with Bleomycin + Phenformin (first compound 0.01 µM), 0.782. For the same cell line, the relative viability with Bleomycin + Phenformin (first compound 0.03162 µM) was 0.906; in the assay with Bleomycin + Phenformin (first compound 0.1 µM) it was 0.807; in the assay with Bleomycin + Phenformin (first compound 0.3162 µM) it was 0.376; with Bleomycin + Phenformin (first compound 1 µM), 0.292; with Etoposide + Pictilisib (first compound 0.01 µM), 0.38; with Etoposide + Pictilisib (first compound 0.03162 µM), 0.425. The relative viability with Etoposide + Pictilisib (first compound 0.1 µM) is 0.267; with Etoposide + Pictilisib (first compound 0.3162 µM), 0.149; with Etoposide + Pictilisib (first compound 1 µM), 0.147; in the assay with Etoposide + Trametinib (first compound 0.01 µM) it was 0.481; with Etoposide + Trametinib (first compound 0.03162 µM) it was 0.455; with Etoposide + Trametinib (first compound 0.1 µM), 0.394. Further, the relative viability amounted to 0.26 with Etoposide + Trametinib (first compound 0.3162 µM) and 0.141 with Etoposide + Trametinib (first compound 1 µM).

Take NCI-H596: the relative viability stood at 0.52 in the assay with Etoposide + Vorinostat (first compound 0.01 µM); 0.672 with Etoposide + Vorinostat (first compound 0.03162 µM); 0.449 in the assay with Etoposide + Vorinostat (first compound 0.1 µM); 0.591 with Etoposide + Vorinostat (first compound 0.3162 µM); 0.323 with Etoposide + Vorinostat (first compound 1 µM); 0.673 in the assay with Bleomycin + Phenformin (first compound 0.01 µM). The relative viability with Bleomycin + Phenformin (first compound 0.03162 µM) is 0.728; with Bleomycin + Phenformin (first compound 0.1 µM) it was 0.635; with Bleomycin + Phenformin (first compound 0.3162 µM), 0.343; with Bleomycin + Phenformin (first compound 1 µM) it was 0.366; with Etoposide + Pictilisib (first compound 0.01 µM), 0.398; with Etoposide + Pictilisib (first compound 0.03162 µM), 0.427. For the same cell line, the relative viability with Etoposide + Pictilisib (first compound 0.3162 µM) is 0.375; with Etoposide + Pictilisib (first compound 1 µM), 0.36; with Etoposide + Trametinib (first compound 0.01 µM), 0.7; with Etoposide + Trametinib (first compound 0.03162 µM), 0.965; with Etoposide + Trametinib (first compound 0.1 µM), 0.772; with Etoposide + Trametinib (first compound 0.3162 µM) it was 0.727. Moreover, in the assay with Etoposide + Trametinib (first compound 1 µM), the relative viability amounted to 0.646.

Turning to NCI-H1666, the relative viability was found to be 0.94 with Etoposide + Vorinostat (first compound 0.01 µM); 0.933 with Etoposide + Vorinostat (first compound 0.03162 µM); 0.918 with Etoposide + Vorinostat (first compound 0.1 µM); 0.632 with Etoposide + Vorinostat (first compound 0.3162 µM); 0.549 with Etoposide + Vorinostat (first compound 1 µM); 0.528 with Bleomycin + Phenformin (first compound 0.01 µM). The relative viability worked out at 0.516 with Bleomycin + Phenformin (first compound 0.03162 µM); 0.494 with Bleomycin + Phenformin (first compound 0.1 µM); 0.344 with Bleomycin + Phenformin (first compound 0.3162 µM); 0.302 with Bleomycin + Phenformin (first compound 1 µM); 0.469 in the assay with Etoposide + Pictilisib (first compound 0.01 µM); 0.233 in the assay with Etoposide + Pictilisib (first compound 0.03162 µM). Besides, the relative viability with Etoposide + Pictilisib (first compound 0.1 µM) was determined as 0.325; with Etoposide + Pictilisib (first compound 0.3162 µM), 0.21; with Etoposide + Pictilisib (first compound 1 µM), 0.205; in the assay with Etoposide + Trametinib (first compound 0.01 µM) it was 0.818; with Etoposide + Trametinib (first compound 0.03162 µM), 0.89; with Etoposide + Trametinib (first compound 0.1 µM) it was 0.809. Moreover, the relative viability was 0.526 with Etoposide + Trametinib (first compound 0.3162 µM) and 0.508 with Etoposide + Trametinib (first compound 1 µM).

For the cell line NCI-H1993, the relative viability with Etoposide + Vorinostat (first compound 0.03162 µM) was found to be 0.683; with Etoposide + Vorinostat (first compound 0.1 µM) it was 0.507; in the assay with Etoposide + Vorinostat (first compound 0.3162 µM) it was 0.718; with Etoposide + Vorinostat (first compound 1 µM) it was 0.284; with Bleomycin + Phenformin (first compound 0.01 µM), 0.501; with Bleomycin + Phenformin (first compound 0.03162 µM) it was 0.512. In addition, the relative viability is 0.478 in the assay with Bleomycin + Phenformin (first compound 0.1 µM); 0.419 with Bleomycin + Phenformin (first compound 0.3162 µM); 0.44 with Bleomycin + Phenformin (first compound 1 µM); 0.804 with Etoposide + Pictilisib (first compound 0.01 µM); 0.802 with Etoposide + Pictilisib (first compound 0.03162 µM); 0.806 with Etoposide + Pictilisib (first compound 0.1 µM). The relative viability came out at 0.915 in the assay with Etoposide + Pictilisib (first compound 0.3162 µM); 0.66 with Etoposide + Pictilisib (first compound 1 µM); 0.619 with Etoposide + Trametinib (first compound 0.03162 µM); 0.441 with Etoposide + Trametinib (first compound 0.1 µM); 0.481 with Etoposide + Trametinib (first compound 0.3162 µM); 0.444 in the assay with Etoposide + Trametinib (first compound 1 µM).

For NCI-H1975, the relative viability came to 0.726 in the assay with Etoposide + Vorinostat (first compound 0.01 µM); 0.728 with Etoposide + Vorinostat (first compound 0.03162 µM); 0.739 with Etoposide + Vorinostat (first compound 0.1 µM); 0.476 in the assay with Etoposide + Vorinostat (first compound 0.3162 µM); 0.328 with Etoposide + Vorinostat (first compound 1 µM); 0.322 with Bleomycin + Phenformin (first compound 0.01 µM). Besides, the relative viability came out at 0.316 with Bleomycin + Phenformin (first compound 0.03162 µM); 0.253 in the assay with Bleomycin + Phenformin (first compound 0.1 µM); 0.162 with Bleomycin + Phenformin (first compound 0.3162 µM); 0.123 in the assay with Bleomycin + Phenformin (first compound 1 µM); 0.304 with Etoposide + Pictilisib (first compound 0.01 µM); 0.328 with Etoposide + Pictilisib (first compound 0.03162 µM). The relative viability with Etoposide + Pictilisib (first compound 0.1 µM) turned out to be 0.225; with Etoposide + Pictilisib (first compound 0.3162 µM), 0.276; with Etoposide + Pictilisib (first compound 1 µM) it was 0.168; with Etoposide + Trametinib (first compound 0.01 µM), 0.303; with Etoposide + Trametinib (first compound 0.03162 µM), 0.425; in the assay with Etoposide + Trametinib (first compound 0.1 µM), 0.284. In addition, the relative viability with Etoposide + Trametinib (first compound 0.3162 µM) worked out at 0.268; in the assay with Etoposide + Trametinib (first compound 1 µM), 0.236.

For the cell line HCC-44, the relative viability with Etoposide + Vorinostat (first compound 0.01 µM) was determined as 1.12; with Etoposide + Vorinostat (first compound 0.03162 µM), 1.04; in the assay with Etoposide + Vorinostat (first compound 0.1 µM), 1.21; with Etoposide + Vorinostat (first compound 0.3162 µM), 1.02; in the assay with Etoposide + Vorinostat (first compound 1 µM), 0.727; with Bleomycin + Phenformin (first compound 0.01 µM) it was 0.104. For the same cell line, the relative viability in the assay with Bleomycin + Phenformin (first compound 0.03162 µM) stood at 0.0979; in the assay with Bleomycin + Phenformin (first compound 0.1 µM) it was 0.075; in the assay with Bleomycin + Phenformin (first compound 0.3162 µM) it was 0.0859; in the assay with Bleomycin + Phenformin (first compound 1 µM), 0.0579; with Etoposide + Pictilisib (first compound 0.01 µM) it was 0.529; with Etoposide + Pictilisib (first compound 0.03162 µM) it was 0.601. Moreover, the relative viability was found to be 0.531 with Etoposide + Pictilisib (first compound 0.1 µM); 0.589 with Etoposide + Pictilisib (first compound 0.3162 µM); 0.275 with Etoposide + Pictilisib (first compound 1 µM); 1.01 with Etoposide + Trametinib (first compound 0.01 µM); 1.21 in the assay with Etoposide + Trametinib (first compound 0.03162 µM); 1.09 with Etoposide + Trametinib (first compound 0.1 µM). Moreover, the results for the relative viability with Etoposide + Trametinib (first compound 0.3162 µM) and with Etoposide + Trametinib (first compound 1 µM) were 0.97 and 0.739, respectively.
